These molecules were tested on C5a-induced chemotaxis of PMN (assay: Inhibition of C5a-induced chemotaxis of human PMNs (microchamber)). Settings: Homo sapiens, 1 h, compound C = 10^−6 M, C5a 10^−9 M, 60 min at 37° C.
Type: cell-based
Method: The compounds of the invention of formula (I) were evaluated in vitro for their ability to inhibit chemotaxis of polymorphonucleate leukocytes (hereinafter referred to as PMNs) and monocytes induced by the fractions of the complement C5a and C5a-desArg. For this purpose, to isolate the PMNs from heparinized human blood, taken from healthy adult volunteers, mononucleates were removed by means of sedimentation on dextran (according to the procedure disclosed by W. J. Ming et al., J. Immunol., 138, 1469, 1987) and red blood cells by a hypotonic solution. The cell vitality was calculated by exclusion with Trypan blue, whilst the ratio of the circulating polymorphonucleates was estimated on the cytocentrifugate after staining with Diff Quick.
Human recombinant fractions C5a and C5a-desArg (Sigma) were used as stimulating agents in the chemotaxis experiments, giving practically identical results.
The lyophilized C5a was dissolved in a volume of HBSS containing 0.2% bovin serum albumin BSA so thus to obtain a stock solution having a concentration of 10^−5 M to be diluted in HBSS to a concentration of 10^−9 M, for the chemotaxis assays.
In the chemotaxis experiments, the PMNs were incubated with the compounds of the invention of formula (I) for 15′ at 37° C. in an atmosphere containing 5% CO2.
The chemotactic activity of the C5a was evaluated on human circulating polymorphonucleates (PMNs) resuspended in HBSS at a concentration of 1.5×10^6 PMNs per mL.
During the chemotaxis assay (according to W. Falket et al., J. Immunol. Methods, 33, 239, 1980) PVP-free filters with a porosity of 5 μm and microchambers suitable for replication were used.
The compounds of the invention in formula (I) were evaluated at a concentration ranging between 10^−6 and 10^−10 M; for this purpose they were added, at the same concentration, both to the lower pores and the upper pores of the microchamber. The wells in the lower part contain the solution of C5a or the simple carrier, those in the upper part contain the suspension of PMNs.
Inhibition of C5a-induced chemotactic activity by the individual compounds of the invention of formula (I) was evaluated by incubating the microchamber for the chemotaxis for 60 min at 37° C. in an atmosphere containing 5% CO2.
By way of example, the inhibition data of the chemotaxis of PMN (C=10^−6 M) of some representative compounds of the invention are reported in the following table: […]

In the case of `C[C@@H](C(=O)NCCC[N+](C)(C)C)c1ccccc1Nc1c(Cl)cccc1Cl` [(R)-{3-{2-[2-(2,6-dichlorophenylamino)-phenyl]-propionylamino}-propyl)-trimethylammonium iodide], the inhibition at 1 µM is reported as 62 ± 3%.

Same assay, conditions: compound C = 10^−6 M, C5a 10^−9 M, 60 min at 37° C.

Point of comparison: `CC(C)Cc1ccc([C@@H](C)C(=O)NCCC[N+](C)(C)CC2CCCCC2)cc1.CS(=O)(=O)[O-]` [R(−)-{3-[2-(4′-isobutylphenyl)-propionylamino]-propyl}-N-cyclohexylmethyl-N,N-dimethyl-ammonium metaneosulfonate], “% INHIBITION (C = 10^−6 M)” value 57 ± 4%. Against it:
- CC(C)Cc1ccc([C@@H](C)C(=O)NCCC[N+]2(C)CCCCC2)cc1.[I-] [R(−)-{3-[2-(4′-isobutylphenyl)-propionylamino]-propyl}-1-methyl-piperidinium iodide] — lower, 24 ± 4%
- R(−)-2-[(4′-isobutylphenyl)-propionylamino]-1,1-dimethylpiperidinium iodide — lower, 18 ± 9%
- CC(C)Cc1ccc([C@@H](C)C(=O)NCCC[N+](C)(C)Cc2ccccc2)cc1.[I-] [R(−)-{3-[2-(4′-isobutylphenyl)-propionylamino]-propyl}-(N-benzyl)-N,N-dimethylammonium iodide] — lower, 22 ± 4%
- CC(C)Cc1ccc([C@@H](C)C(=O)NCCC[N+](C)(C)C)cc1.[I-] [R(−)-{3-[2-(4′-isobutylphenyl)-propionylamino]-propyl}-trimetilammonium iodide] — within error, 53 ± 6%
